Results: publication PMC12329707, “Ancestral Sequence Reconstruction of the Ethylene-Forming Enzyme” (Biochemistry, 2025)

Assays:
[1] = tested on: T1, Anc357 (synthetic construct); test: anaerobic UV-visible difference spectroscopy (MLCT); type: binding; conditions: Fe(II)
T1 construct: pET28a, E. coli; N-terminal His6 tag removed by TEV; 37,413 Da expected after cleavage; monomer

PaIPNS = biological target: T2, PaIPNS (Pseudomonas aeruginosa, UniProt Q9HWJ0); test: as above; type: binding; conditions: Fe(II) 1 mM, dithionite 2 mM, 25 mM HEPES pH 7.5
T2 construct: gene PA4191; synthetic codon-optimised gene in pET28a, E. coli; N-terminal His6 tag removed by TEV; EDTA-treated apoprotein reconstituted with Fe(II)
T2 sequence (Q9HWJ0 1-334): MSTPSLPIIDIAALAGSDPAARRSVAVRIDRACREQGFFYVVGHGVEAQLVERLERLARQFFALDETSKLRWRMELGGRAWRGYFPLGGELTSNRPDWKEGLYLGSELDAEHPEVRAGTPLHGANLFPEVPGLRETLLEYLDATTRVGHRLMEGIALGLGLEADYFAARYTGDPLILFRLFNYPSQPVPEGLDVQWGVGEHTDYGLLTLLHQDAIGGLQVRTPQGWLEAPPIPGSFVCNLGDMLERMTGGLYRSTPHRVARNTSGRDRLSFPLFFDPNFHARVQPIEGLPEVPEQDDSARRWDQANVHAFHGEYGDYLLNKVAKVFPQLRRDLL

Din11 = biological target: T3, Din11 (Arabidopsis thaliana, UniProt Q8H113); test: P5C formation, colorimetric assay; type: biochemical; conditions: 2OG 6.67 mM, L-Arg 6.67 mM, Fe(II) 0.4 mM, ascorbate 0.8 mM, HEPES pH 7.5, room temperature
T3 construct: gene 2ODDC23.2; synthetic codon-optimised gene in pET28a, E. coli; N-terminal His6 tag, removed by TEV; Fe(II) added
T3 sequence (Q8H113 1-357): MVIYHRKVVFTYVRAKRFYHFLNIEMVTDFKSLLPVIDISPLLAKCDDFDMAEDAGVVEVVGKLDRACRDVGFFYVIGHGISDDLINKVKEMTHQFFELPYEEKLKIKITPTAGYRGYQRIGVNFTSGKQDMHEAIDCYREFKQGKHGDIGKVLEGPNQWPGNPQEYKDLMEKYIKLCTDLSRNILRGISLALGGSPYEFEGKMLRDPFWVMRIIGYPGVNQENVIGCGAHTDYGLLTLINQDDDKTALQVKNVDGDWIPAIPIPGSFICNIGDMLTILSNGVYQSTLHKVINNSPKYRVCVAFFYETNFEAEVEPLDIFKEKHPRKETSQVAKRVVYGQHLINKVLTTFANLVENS

SMILES | anaerobic UV-visible difference spectroscopy (MLCT) [1] | anaerobic UV-visible difference spectroscopy (MLCT) (PaIPNS) | P5C formation, colorimetric assay (Din11)
O=C(O)CCC(=O)C(=O)O [2OG] | consistent with 2OG binding (Figure S6) | The PaIPNS spectra clearly demonstrated that PaIPNS binds 2OG | –
N=C(N)NCCC[C@H](N)C(=O)O [L-Arg] | – | – | this enzyme hydroxylated L-Arg to produce P5C
